Source: US20110165277A1, “Biological Materials and Uses Thereof” (priority 2008, published 2011)
“And” between values parts separate entries of the source, which are not always exact repeats. Equal values may be shown once.

Assays:
[1] = system: rumen fluid; experiment: Methane and volatile fatty acid production by buffered rumen fluid incubated with hay barley mix (Example 1); format: cell-based, cow; conditions: 500 μg/ml; 16 hours, 39° C.
Procedure: Thirty ml of a 33% buffered solution of rumen fluid withdrawn from a rumen canulated cow was incubated with 0.3 g of a 50:50 hay barley mix at 39° C. under anaerobic conditions.
After 16 hours the volume of gas produced and the percentage of methane in the headspace was measured and the resultant fermentation fluid was analysed for volatile fatty acids by HPLC.
Sandalwood oil, and control oils of commercial essential oil mixes or pure oils of eugenol or cinnamaldehyde were added in the amount of 500 μg/ml to the 30 ml buffered solution of rumen fluid prior to incubation. Sandalwood oil was obtained from Cardiff University and Sigma [SAFC (e.g. W30,050-0 lot no. 03722CC-396) and Sandalwood oil manufactured by Fluka (355263/1 lot no. 52706264).]

[2] = Further sandalwood analogues: volatile fatty acid and methane production (Example 7, Table 14); format: cell-based
Procedure: (§1) Further testing of sandalwood analogues was conducted following the protocols described in Examples 3 and 5.

[3] = Further sandalwood analogues: CH4 per bottle, compound in DMSO or ETOH (Example 7, Table 15); format: cell-based; conditions: for CH4: single bottles rep a, b, c
Procedure: as §1

SMILES	Acetate ([2]; 5 μg/ml)	Butyrate ([2]; 5 μg/ml)	Methane ([2]; 5 μg/ml)	Propionate ([2]; 5 μg/ml)	TVFA ([2]; 5 μg/ml)	Acetate ([2]; 50 μg/ml)	Butyrate ([2]; 50 μg/ml)	Methane ([2]; 50 μg/ml)	Propionate ([2]; 50 μg/ml)	TVFA ([2]; 50 μg/ml)	Acetate ([2]; 100 μg/ml)	Butyrate ([2]; 100 μg/ml)	Methane ([2]; 100 μg/ml)	Propionate ([2]; 100 μg/ml)	TVFA ([2]; 100 μg/ml)	Acetate ([2]; 500 μg/ml)	Butyrate ([2]; 500 μg/ml)	Methane ([2]; 500 μg/ml)	Propionate ([2]; 500 μg/ml)	TVFA ([2]; 500 μg/ml)	further results
C=CCc1ccc(O)c(OC)c1 [Eugenol]																					Acetate formation [1]: 2817 μmole/g of feed; Butyrate formation [1]: 73 μmole/g of feed; Methane formation [1]: 1436 μmole/g of feed; Propionate formation [1]: 590 μmole/g of feed; Total volatile fatty acids formation [1]: 3479 μmole/g of feed
CC1=CCC(CCC(C)C(C)O)C1(C)C (stereo not shown) [Sandalore, 5-(2,2,3-Trimethyl-3-cyclopentenhyl)-3-methylpentan-2-ol]	2118 μmol/g of feed added	487 μmol/g of feed added	951 μmol/g of feed added	431 μmol/g of feed added	3036 μmol/g of feed added	1972 μmol/g of feed added	453 μmol/g of feed added	1086 μmol/g of feed added	409 μmol/g of feed added	2834 μmol/g of feed added	2119 μmol/g of feed added	432 μmol/g of feed added	1174 μmol/g of feed added	471 μmol/g of feed added	3023 μmol/g of feed added	2249 μmol/g of feed added	305 μmol/g of feed added	902 μmol/g of feed added	897 μmol/g of feed added	3451 μmol/g of feed added	
CC1C2CC(CC2C2CCC(O)CC2)C1(C)C (stereo not shown) [Sandela, 4-(5,5,6-Trimethylbicyclo[2.2.1]hept-2-yl)cyclohexan-1-ol]	2223 μmol/g of feed added	482 μmol/g of feed added	996 μmol/g of feed added	465 μmol/g of feed added	3169 μmol/g of feed added	2235 μmol/g of feed added	513 μmol/g of feed added	1052 μmol/g of feed added	450 μmol/g of feed added	3198 μmol/g of feed added	2297 μmol/g of feed added	515 μmol/g of feed added	1078 μmol/g of feed added	477 μmol/g of feed added	3289 μmol/g of feed added	2270 μmol/g of feed added	317 μmol/g of feed added	928 μmol/g of feed added	680 μmol/g of feed added	3267 μmol/g of feed added	
CCC(=CCC1CC=C(C)C1(C)C)CO (stereo not shown) [Sanjinol, 2-ethyl-4(2,2,3-trimethyl-3-cyclopentenyl)-2-buten-1-ol]	1978 μmol/g of feed added	448 μmol/g of feed added	1107 μmol/g of feed added	426 μmol/g of feed added	2852 μmol/g of feed added	2192 μmol/g of feed added	466 μmol/g of feed added	835 μmol/g of feed added	579 μmol/g of feed added	3237 μmol/g of feed added	2359 μmol/g of feed added	512 μmol/g of feed added	795 μmol/g of feed added	697 μmol/g of feed added	3568 μmol/g of feed added	1849 μmol/g of feed added	225 μmol/g of feed added	741 μmol/g of feed added	744 μmol/g of feed added	2818 μmol/g of feed added	CH4 (mean of rep a-c) ([3]; 150 ug/30 ml in 200 ul DMSO): 938.5618 µmol/g; CH4 ([3]; 150 ug/30 ml in 200 ul DMSO): 1107.671 µmol/g and 793.8945 µmol/g and 914.1195 µmol/g; CH4 (mean of rep a-c) ([3]; 150 ug/30 ml in 200 ul ETOH): 1153.269 µmol/g; CH4 ([3]; 150 ug/30 ml in 200 ul ETOH): 1064.879 µmol/g and 1232.288 µmol/g and 1162.641 µmol/g; CH4 (mean of rep a-c) ([3]; 15000 ug/30 ml in 200 ul DMSO): 743.6664 µmol/g; CH4 ([3]; 15000 ug/30 ml in 200 ul DMSO): 615.569 µmol/g and 893.1559 µmol/g and 722.2742 µmol/g; CH4 (mean of rep a-c) ([3]; 15000 ug/30 ml in 200 ul ETOH): 1158.419 µmol/g; CH4 ([3]; 15000 ug/30 ml in 200 ul ETOH): 1063.899 µmol/g and 1351.649 µmol/g and 1059.708 µmol/g
